Laboratory results published in patent publication US5679671A, “Amino acid derivative” (Eisai Co., Ltd., priority 1993, dated 1997).

What was measured:
ACE [1] = molecular target: T1, ACE (Rattus norvegicus, UniProt P47820); assay: ACE inhibition activity (Experiment F-1); type: biochemical; settings: rat lung membrane fraction, pH 8.3
T1 construct: membrane fraction prepared from rat lung; from tissue; host or cells: rat lung, membrane fraction (method of Wu-Wong et al.)
T1 sequence (P47820 36-1313): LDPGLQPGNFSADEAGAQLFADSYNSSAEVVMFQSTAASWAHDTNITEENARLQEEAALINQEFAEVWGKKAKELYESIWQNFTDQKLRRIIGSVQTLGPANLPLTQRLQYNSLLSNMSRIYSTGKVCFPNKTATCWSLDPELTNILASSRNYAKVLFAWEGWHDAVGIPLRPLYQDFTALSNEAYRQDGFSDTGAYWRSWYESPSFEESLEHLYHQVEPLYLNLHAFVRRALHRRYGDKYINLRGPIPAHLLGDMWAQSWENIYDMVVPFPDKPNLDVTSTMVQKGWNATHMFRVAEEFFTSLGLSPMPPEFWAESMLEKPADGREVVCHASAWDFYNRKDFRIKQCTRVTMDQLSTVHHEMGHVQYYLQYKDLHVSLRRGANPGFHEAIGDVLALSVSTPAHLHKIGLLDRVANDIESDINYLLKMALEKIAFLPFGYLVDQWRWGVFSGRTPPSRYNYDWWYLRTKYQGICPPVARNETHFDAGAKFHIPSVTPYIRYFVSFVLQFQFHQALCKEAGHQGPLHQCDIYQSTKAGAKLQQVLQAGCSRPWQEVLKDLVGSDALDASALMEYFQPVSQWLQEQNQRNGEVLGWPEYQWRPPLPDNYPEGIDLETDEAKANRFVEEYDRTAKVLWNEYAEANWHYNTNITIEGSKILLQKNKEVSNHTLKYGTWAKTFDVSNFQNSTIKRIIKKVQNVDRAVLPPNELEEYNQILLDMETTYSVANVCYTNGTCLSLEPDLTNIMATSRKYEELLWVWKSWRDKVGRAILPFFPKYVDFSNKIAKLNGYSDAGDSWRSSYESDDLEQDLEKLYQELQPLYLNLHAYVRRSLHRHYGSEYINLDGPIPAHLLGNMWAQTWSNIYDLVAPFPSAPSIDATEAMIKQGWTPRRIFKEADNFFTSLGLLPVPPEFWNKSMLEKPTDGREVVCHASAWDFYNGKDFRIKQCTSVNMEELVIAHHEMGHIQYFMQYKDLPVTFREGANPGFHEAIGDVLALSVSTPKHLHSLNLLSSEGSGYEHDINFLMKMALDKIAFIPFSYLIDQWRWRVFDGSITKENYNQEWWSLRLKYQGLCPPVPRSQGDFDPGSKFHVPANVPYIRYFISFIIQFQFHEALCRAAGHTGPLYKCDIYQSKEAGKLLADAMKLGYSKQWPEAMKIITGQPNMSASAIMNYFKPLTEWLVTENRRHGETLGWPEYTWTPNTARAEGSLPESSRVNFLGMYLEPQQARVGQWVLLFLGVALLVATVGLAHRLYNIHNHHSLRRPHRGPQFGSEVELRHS
Method: As a source of the enzyme ACE, a membrane fraction prepared from rat lung in accordance with the method of Wu-Wong et al. (Characterization of Endthelin Converting Enzyme in Rat Lung., Jinshyum R. Wu-Wong, Gerald P. Budzik, Edward M, Devine and Terry J. Opgenorth, Biochem. Biophys. Res. Commun., 1990, 171, 1291-1296.) was used. The ACE activity was determined with the use of a modification (modified to a borate buffer pH 8.3) of the method of Cushman and Cheung (Spectrophotometric Assay and Properties of the Angiotensin-Converting Enzyme of Rabbit Lung., Cushman D. W. and Cheung H. S., 1971, 20, 1637-1648.). Now the procedure will be briefly described.
In the presence of ACE, the hippurate liberated from hippuryl-histidyl-leucine (Hippuryl-His-Leu (Peptide Institute Inc., Japan)) was extracted with ethyl acetate and then the absorbance was measured at a wavelength of 228 nm.
(§1) With respect to the NEP inhibition activity and the ACE inhibition activity, the inhibitor was added to the assay systems of both enzyme activities as described above in such a manner as to give the final concentrations of 1, 3, 10, 30, 100, 300 and 1000 inhibition curves were prepared, and then the concentration at which 50% inhibition was achieved was taken as IC50.

ACE [2] = molecular target: T1, ACE; assay: ACE inhibition activity using rat lung (Experiment A-2); type: biochemical; settings: rat lung membrane fraction, borate buffer pH 8.3
Method: The ACE inhibition activity was determined by using a membrane fraction prepared from rat lung in accordance with the method of Wu-Wong et al. (Characterization of Endthelin Converting Enzyme in Rat Lung., Junshyum R. Wu-Wong, Gerald, P. Budzik, Edward M. Devine and Terry J. Opgenorth, Biochem. Biophys. Res. Commun., 1990, 171, 1291-1296.).
The ACE activity was determined with the use of a modification (modified to a borate buffer, pH 8.3) of the method of Cushman and Cheung (Spectrophotometric Assay and Properties of the Angiotensin-Converting Enzyme of Rabbit Lung., Cushman, D. W. and Cheung H. S., 1971, 20, 1637-1648.).
In the presence of ACE, the hippurate liberated from hippuryl-histidyl-leucine (Hippuryl-His-Leu (PeptideInstitute Inc., Japan)) was extracted with ethyl acetate and then the absorbance was measured at a wavelength of 228 nm.
as §1, with “to” for “to the NEP inhibition activity and”, “experimental system” for “assay systems of both enzyme activities”, “1000 nM, an” for “1000”, “curve was” for “curves were”

| IC50 (ACE [1]) | IC50 (ACE [2]) | Structure (SMILES) |
| --- | --- | --- |
| – | 11 nM | CC[C@H](C)[C@H](S)C(=O)N[C@H]1CCc2ccccc2N(CC(=O)O)C1=O [Example A-11, (S)-3-[(2S,3S)-2-Mercapto-3-methylvarelylamino]-1-carboxymethyl-2,3,4,5-tetrahydro-1H-[1]benzazepin-2-one] |
| 5.2 nM | – | CC[C@H](C)[C@H](S)C(=O)N[C@H]1CCC[C@H]2SC[C@@H](C(=O)O)N2C1=O [Example C-8, [3R-[3α,6α,(S*),9aβ]]-6-[[(2S,3S)-3-methyl-1-oxo-2-thiopentyl]amino]-octahydro-5-oxothiazol[3,2-a]-azepine-3-carboxylic acid] |
| 13.4 nM | – | O=C(N[C@H]1CCC[C@H]2SC[C@@H](C(=O)O)N2C1=O)[C@@H](S)Cc1ccccc1 [Example F-17, [3R-[3α,6α(S*),9aβ]]-6-[[(S)-1-Oxo-2-thio-3-phenylpropyl]amino]-octahydro-5-oxothiazol[3,2-a]-azepine-3-carboxylic acid] |

The remaining lines, values behind:

| Structure (SMILES) | IC50 (ACE [1]) | IC50 (ACE [2]) |
| --- | --- | --- |
| O=C(N[C@H]1Cc2ccccc2[C@H]2CCC[C@@H](C(=O)O)N2C1=O)[C@@H](S)Cc1ccccc1 [Comp. cpd. E-1, [4S-[4α,7α(R*),12bβ]]-7-[(1-oxo-2-(S)-thio-3-phenyl-propyl)amino]-1,2,3,4,6,7,8,12b-octahydro-6-oxopyrido-[2,1-a][2]benzazepine-4-carboxylic acid, reference compound] | 10.6 nM | – |
| CC[C@H](C)[C@H](S)C(=O)NC1CCc2ccccc2N(CC(=O)O)C1=O (stereo partly drawn) [Example A-9, 1-Carboxymethyl-3-[(2S,3S)-2-mercapto-3-methylvarelylamino]-1H-[1]benzazepin-2-one] | – | 13 nM |
